In US20080262029A1, “Acid and Base Salt Forms of Gaboxadol” (H. Lundbeck A/S, priority 2005, published 2008):
Structures can show the parent of a compound that is named as a salt.

Legend:
[1] = Differential scanning calorimetry (DSC) of gaboxadol salt forms; format: physicochemical; settings: for DSC exothermic decomposition onset / DSC exothermic transition onset: 25 to 300° C., 10° C./min, dry nitrogen
Experimental: (§1) The X-ray powder diffraction spectra was generated on a Philips Analytical X'Pert PRO X-ray Diffraction System with PW3040/60 console. A PW3373/00 ceramic Cu LEF X-ray tube K-Alpha radiation was used as the source. The X-ray powder diffraction spectrum was recorded at ambient temperature (CuKα radiation, 3° to 40° (2θ), steps of 0.014°, 0.2 sec per step), giving the results herein. Solid-state carbon-13 NMR spectrum was obtained on a Bruker DSX 400WB NMR system using a Bruker 4 mm double resonance CPMAS probe. Carbon-13 NMR spectrum utilized proton/carbon-13 cross-polarization magic-angle spinning with variable-amplitude cross polarization. The sample was spun at 15.0 kHz, and a total of 2048 scans were collected with a recycle delay of 20 seconds. A line broadening of 40 Hz was applied to the spectrum before FT was performed. Chemical shifts are reported on the TMS scale using the carbonyl carbon of glycine (176.03 p.p.m.) as a secondary reference. DSC traces were recorded between 25 and 300° C. (10° C./min), under a flow of dry nitrogen. TGA was carried out between 25 and 300° C. (10° C./min), under a flow of dry nitrogen.

[2] = Thermogravimetric analysis (TGA) of gaboxadol salt forms; format: physicochemical; settings: for TGA decomposition onset / TGA weight loss before decomposition (in words): 25 to 300° C., 10° C./min, dry nitrogen
Experimental: as §1

[3] = biological target: GABAA receptors comprising α4 and δ subunits (Homo sapiens, UniProt O14764+P48169); settings: Brown et al, British J. Pharmacol., 136, 965-74 (2002); cited from earlier work
Sequence of GABAA receptors comprising α4 and δ subunits (P48169 36-554): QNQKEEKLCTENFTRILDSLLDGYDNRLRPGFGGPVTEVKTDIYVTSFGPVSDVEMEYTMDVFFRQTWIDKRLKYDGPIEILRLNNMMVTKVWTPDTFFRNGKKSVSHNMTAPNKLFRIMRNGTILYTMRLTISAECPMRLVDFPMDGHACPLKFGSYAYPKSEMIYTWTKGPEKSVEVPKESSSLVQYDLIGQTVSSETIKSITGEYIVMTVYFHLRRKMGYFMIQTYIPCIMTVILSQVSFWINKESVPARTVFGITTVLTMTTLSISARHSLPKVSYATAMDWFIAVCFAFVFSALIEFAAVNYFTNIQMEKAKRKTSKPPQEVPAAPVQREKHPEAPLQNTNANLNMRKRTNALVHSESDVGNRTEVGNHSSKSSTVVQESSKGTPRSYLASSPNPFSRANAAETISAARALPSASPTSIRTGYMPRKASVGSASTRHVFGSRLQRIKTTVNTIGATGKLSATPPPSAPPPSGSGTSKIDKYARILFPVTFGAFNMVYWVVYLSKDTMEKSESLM
Sequence of GABAA receptors comprising α4 and δ subunits (O14764 25-452): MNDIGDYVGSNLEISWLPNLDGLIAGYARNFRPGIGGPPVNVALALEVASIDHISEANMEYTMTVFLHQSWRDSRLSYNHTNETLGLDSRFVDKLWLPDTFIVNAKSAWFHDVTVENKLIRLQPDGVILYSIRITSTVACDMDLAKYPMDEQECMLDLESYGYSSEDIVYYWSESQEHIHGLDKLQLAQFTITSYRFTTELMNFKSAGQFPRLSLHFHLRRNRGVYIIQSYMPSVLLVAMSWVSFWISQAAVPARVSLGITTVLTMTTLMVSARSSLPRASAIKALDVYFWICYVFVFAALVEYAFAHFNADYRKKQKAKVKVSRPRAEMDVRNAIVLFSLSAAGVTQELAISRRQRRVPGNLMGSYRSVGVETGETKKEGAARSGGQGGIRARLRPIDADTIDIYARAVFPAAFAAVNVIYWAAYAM
Sequence of GABAA receptors comprising α4 and δ subunits (P28472 26-473 partner): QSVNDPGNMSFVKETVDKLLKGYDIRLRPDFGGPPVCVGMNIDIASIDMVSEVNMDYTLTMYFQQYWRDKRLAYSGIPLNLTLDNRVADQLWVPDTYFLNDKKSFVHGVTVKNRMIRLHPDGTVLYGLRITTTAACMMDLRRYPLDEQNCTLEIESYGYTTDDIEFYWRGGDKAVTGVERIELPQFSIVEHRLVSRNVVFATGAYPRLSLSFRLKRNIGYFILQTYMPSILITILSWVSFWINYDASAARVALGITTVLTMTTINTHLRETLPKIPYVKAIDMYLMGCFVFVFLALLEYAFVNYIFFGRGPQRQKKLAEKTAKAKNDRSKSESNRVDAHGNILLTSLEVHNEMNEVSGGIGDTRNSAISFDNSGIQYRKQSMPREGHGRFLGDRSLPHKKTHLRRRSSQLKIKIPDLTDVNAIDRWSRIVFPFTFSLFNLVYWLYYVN

Molecule	DSC observation of exothermic events (in words) ([1]; solid analysed by DSC)	DSC exothermic decomposition onset [1]	TGA decomposition onset [2]	other results
gaboxadol L-lysine [L-Lysine Salt]	exhibited exothermic transitions			
gaboxadol succinate [Succinate Salt]		198 °C	193 °C	TGA weight loss before decomposition (in words) [2]: no weight loss
gaboxadol bis-sulfate [Sulfate Salt from trifluorotoluene (Type I)]		220 °C	about 220 °C	TGA weight loss, step 2 ([2]; from 87° C. to 180° C.): 4.3 wt %; TGA weight loss, step 1 ([2]; from about 50° C. to 87° C.): 1.2 wt %
Oc1noc2c1CCNC2.c1ccc(CNCCNCc2ccccc2)cc1 [N,N-Dibenzyl-ethylenediamine Salt, gaboxadol N,N-dibenzyl(ethylene)diamine]	exhibited an exothermic transition			
gaboxadol citrate [Citrate Salt from isopropyl acetate]			about 190 °C	DSC exothermic transition onset [1]: 175 °C; TGA weight loss ([2]; from 31° C. to 109° C.): 18.5 wt %
gaboxadol acetate [Acetate Salt]			205 °C	DSC exothermic transition onset [1]: 204 °C; TGA weight loss ([2]; from 40° C. to 115° C.): 5.0 wt %
gaboxadol fumarate [Fumarate Salt]		215 °C	about 190 °C	TGA weight loss before decomposition (in words) [2]: no weight loss
Oc1noc2c1CCNC2 [gaboxadol, 4,5,6,7-tetrahydroisoxazolo[5,4-c]pyridin-3-ol]				Agonist potency (in words) [3]: particularly potent agonist
C[N+](C)(C)CCO.[O-]c1noc2c1CCNC2 [Choline Salt, gaboxadol choline]	exhibited exothermic transitions			
gaboxadol magnesium [Magnesium Salt]				Temperature below which DSC indicated no exothermic events ([1]; solid analysed by DSC): approximately 345 °C
gaboxadol tartrate [L-Tartrate Salt]		199 °C	about 189 °C	TGA weight loss ([2]; from 31° C. to 177° C.): 0.6 wt %
gaboxadol bis-sulfate [Sulfate Salt from ethanol and acetonitrile (Type III)]		207 °C	about 220 °C	TGA weight loss, step 2 ([2]; from 118° C. to 154° C.): 0.8 wt %; TGA weight loss, step 1 ([2]; from about 50° C. to 118° C.): 1.4 wt %
gaboxadol phosphate [Phosphate Salt]		about 200 °C	214 °C	TGA weight loss before decomposition (in words) [2]: no weight loss
Oc1noc2c1CCNC2 [Sodium Salt, gaboxadol sodium]	exhibited exothermic transitions			
Oc1noc2c1CCNC2 [Calcium Salt, gaboxadol calcium]	exhibited exothermic decomposition			
Oc1noc2c1CCNC2 [Potassium Salt, gaboxadol potassium]	exhibited exothermic transitions			
O=C(O)CC(O)(CC(=O)O)C(=O)O.Oc1noc2c1CCNC2 [gaboxadol citrate]		175 °C	about 190 °C	TGA weight loss ([2]; from 32° C. to 103° C.): 8.9 wt %
gaboxadol sulfate [Sulfate Salt (1 mol equiv.)]		about 190 °C	196 °C	TGA weight loss ([2]; from 50° C. to 176° C.): 7.1 wt %
